Source: ChEMBL document CHEMBL1151046, “Selective cyclooxygenase inhibitors: Novel 4-spiro 1,2-diarylcyclopentenes are potent and orally active cox-2 inhibitors” (Bioorg Med Chem Lett, 1995)

Legend:
physchem = conditions: octanol/water
Rattus norvegicus [1] = species on record: Rattus norvegicus; experiment: animal or person; type: functional; conditions: po
Rattus norvegicus [2] = species on record: Rattus norvegicus; experiment: animal or person; conditions: po, read-out: Inhibition
[3] = target: Prostaglandin G/H synthase 1 (Homo sapiens, UniProt P23219)
Rattus norvegicus [4] = species on record: Rattus norvegicus; type: functional, Stomach

Chain of Prostaglandin G/H synthase 1 (P23219 whole entry): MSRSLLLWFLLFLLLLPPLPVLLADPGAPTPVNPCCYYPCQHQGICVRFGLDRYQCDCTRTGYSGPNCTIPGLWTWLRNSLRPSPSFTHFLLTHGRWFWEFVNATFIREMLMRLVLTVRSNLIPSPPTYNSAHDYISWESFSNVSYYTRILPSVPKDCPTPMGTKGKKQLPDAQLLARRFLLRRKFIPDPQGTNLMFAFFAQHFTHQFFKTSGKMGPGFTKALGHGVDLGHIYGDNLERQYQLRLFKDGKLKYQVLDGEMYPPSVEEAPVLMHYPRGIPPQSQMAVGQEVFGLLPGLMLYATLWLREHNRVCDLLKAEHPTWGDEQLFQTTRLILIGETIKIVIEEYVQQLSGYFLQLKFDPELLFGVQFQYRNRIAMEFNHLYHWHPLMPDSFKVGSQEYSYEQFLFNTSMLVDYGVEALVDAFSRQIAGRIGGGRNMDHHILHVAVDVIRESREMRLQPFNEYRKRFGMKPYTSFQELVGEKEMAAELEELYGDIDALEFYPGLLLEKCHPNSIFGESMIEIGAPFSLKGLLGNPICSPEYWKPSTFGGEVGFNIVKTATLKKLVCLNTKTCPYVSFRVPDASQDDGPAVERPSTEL

Row | SMILES | logP (physchem) | inhibition in vivo at 30 mg/kg (Rattus norvegicus [1]) [%] | further results
1 | CS(=O)(=O)c1ccc(C2=C(c3ccc(F)cc3)CC3(CCC3)C2)cc1 | 4.9 | 23 | 
2 | CS(=O)(=O)c1ccc(C2=C(c3ccc(F)cc3)CC3(CCCC3)C2)cc1 | 5.4 |  | 
3 | CC1(C)CC(c2ccc(F)cc2)=C(c2ccc(S(C)(=O)=O)cc2)C1 |  |  | inhibition in vivo at 30 mg/kg (Rattus norvegicus [2]): 50%
4 | CS(=O)(=O)Nc1ccc([N+](=O)[O-])cc1OC1CCCCC1 [NS-398] |  | 60 | 
5 | NS(=O)(=O)c1ccc(C2=C(c3ccc(F)cc3)CC3(CCC3)C2)cc1 | 4.1 | 37 | 
6 | CS(=O)(=O)c1ccc(C2=C(c3ccc(F)cc3)CC3(CCCCC3)C2)cc1 |  |  | IC50 [3]: > 100 µM
7 | NS(=O)(=O)c1ccc(C2=C(c3ccc(F)cc3)CC3(CC3)C2)cc1 | 4 | 60 | Gastric lesions (Rattus norvegicus [4]): 10
8 | COc1ccc2c(c1)c(CC(=O)O)c(C)n2C(=O)c1ccc(Cl)cc1 [INDOMETHACIN] |  | 66 | 
9 | CS(=O)(=O)c1ccc(C2=C(c3ccc(F)cc3)CC3(CC3)C2)cc1 | 4.5 | 38 | IC50 [3]: 5.4 µM
